Target: T1, wild-type LRRK2 (Homo sapiens, UniProt Q5S007)
T1 construct: DNA tag for qPCR detection (not a peptide; the protein part that carries it is not described); made in house; host or cells: HEK 293 cells (the same paragraph also describes T7 phage grown in E. coli BL21)
Test: Inhibitory activity against LRRK2: competition binding to ligand-affinity beads, DNA-tagged kinase quantitated by qPCR
Details: % of ctrl; for remaining binding at 0.01 µM: 10 nM compound, read-out: LRRK2(WT) Remaining kinase activity(%) at 10 nM; for remaining binding at 0.05 µM: 50 nM compound, read-out: LRRK2(WT) Remaining kinase activity(%) at 50 nM
Experimental: Representative compounds synthesized in Example 1 were assayed for inhibitory activity against wild-type LRRK2 and mutant LRRK2 (G2019S), and the results are summarized in Tables 2 and 3. In brief, a T7 phase strain carrying the wild-type kinase consisting of amino acid residues from H970 to E2527 of human-derived LRRK2 (Accession no. NP_940980.3) or a T7 phase strain carrying the G2019S mutation kinase was infected into E. coli strain BL21 which was then grown until log phase. After infection with T7 phases (multiplicity of infection=0.4), the cells were cultured at 32° C. for 90-150 minutes while shaking. Then, E. coli lysates were centrifuged (6,000×g) and the supernatant was filtered through a 0.2-μm filter. The kinases were produced in HEK 293 cells. In this regard, DNA was tagged to obtain DNA-tagged kinases for qPCR detection. For use in analyzing the kinases, affinity resins were prepared by treating streptavidin-coated magnetic beads with biotinylated small molecule ligands at room temperature for 30 minutes. Then, the liganded beads were blocked with an excess of biotin and washed with a blocking buffer (SeaBlock (Pierce), 1% BSA, 0.05% Tween 20, 1 mM DTT) to remove unbound ligands and thus to reduce the binding of non-specific phages. […] After one hour of incubation, the affinity beads were washed with a wash buffer (1×PBS, 0.05% Tween 20), resuspended in an elution buffer (1×PBS, 0.05% Tween 20, 0.5 μM non-biotinylated affinity ligand), and incubated at room temperature for 30 minutes while shaking. Afterwards, concentrations of wild-type LRRK2 and mutant LRRK2 (G2019S) in the eluted samples were quantitated by qPCR. Activity values are expressed as percentages relative to the control (% of ctrl). The compounds used in the activity assay were prepared into 40× stocks in 100% DMSO. The stocks were directly diluted during analysis procedures.
Table 2 includes inhibitory activities of the representative compounds of the present disclosure at 100 nM against wild-type LRRK2 and mutant LRRK2 (G2019S) while Table 3 includes inhibitory activities of the representative compounds at 10 nM and 50 nM against wild-type LRRK2. (+++ less than 10%; ++ less than 30%; + less than 50%; −50% or higher)

T1 sequence (Q5S007 970-2527): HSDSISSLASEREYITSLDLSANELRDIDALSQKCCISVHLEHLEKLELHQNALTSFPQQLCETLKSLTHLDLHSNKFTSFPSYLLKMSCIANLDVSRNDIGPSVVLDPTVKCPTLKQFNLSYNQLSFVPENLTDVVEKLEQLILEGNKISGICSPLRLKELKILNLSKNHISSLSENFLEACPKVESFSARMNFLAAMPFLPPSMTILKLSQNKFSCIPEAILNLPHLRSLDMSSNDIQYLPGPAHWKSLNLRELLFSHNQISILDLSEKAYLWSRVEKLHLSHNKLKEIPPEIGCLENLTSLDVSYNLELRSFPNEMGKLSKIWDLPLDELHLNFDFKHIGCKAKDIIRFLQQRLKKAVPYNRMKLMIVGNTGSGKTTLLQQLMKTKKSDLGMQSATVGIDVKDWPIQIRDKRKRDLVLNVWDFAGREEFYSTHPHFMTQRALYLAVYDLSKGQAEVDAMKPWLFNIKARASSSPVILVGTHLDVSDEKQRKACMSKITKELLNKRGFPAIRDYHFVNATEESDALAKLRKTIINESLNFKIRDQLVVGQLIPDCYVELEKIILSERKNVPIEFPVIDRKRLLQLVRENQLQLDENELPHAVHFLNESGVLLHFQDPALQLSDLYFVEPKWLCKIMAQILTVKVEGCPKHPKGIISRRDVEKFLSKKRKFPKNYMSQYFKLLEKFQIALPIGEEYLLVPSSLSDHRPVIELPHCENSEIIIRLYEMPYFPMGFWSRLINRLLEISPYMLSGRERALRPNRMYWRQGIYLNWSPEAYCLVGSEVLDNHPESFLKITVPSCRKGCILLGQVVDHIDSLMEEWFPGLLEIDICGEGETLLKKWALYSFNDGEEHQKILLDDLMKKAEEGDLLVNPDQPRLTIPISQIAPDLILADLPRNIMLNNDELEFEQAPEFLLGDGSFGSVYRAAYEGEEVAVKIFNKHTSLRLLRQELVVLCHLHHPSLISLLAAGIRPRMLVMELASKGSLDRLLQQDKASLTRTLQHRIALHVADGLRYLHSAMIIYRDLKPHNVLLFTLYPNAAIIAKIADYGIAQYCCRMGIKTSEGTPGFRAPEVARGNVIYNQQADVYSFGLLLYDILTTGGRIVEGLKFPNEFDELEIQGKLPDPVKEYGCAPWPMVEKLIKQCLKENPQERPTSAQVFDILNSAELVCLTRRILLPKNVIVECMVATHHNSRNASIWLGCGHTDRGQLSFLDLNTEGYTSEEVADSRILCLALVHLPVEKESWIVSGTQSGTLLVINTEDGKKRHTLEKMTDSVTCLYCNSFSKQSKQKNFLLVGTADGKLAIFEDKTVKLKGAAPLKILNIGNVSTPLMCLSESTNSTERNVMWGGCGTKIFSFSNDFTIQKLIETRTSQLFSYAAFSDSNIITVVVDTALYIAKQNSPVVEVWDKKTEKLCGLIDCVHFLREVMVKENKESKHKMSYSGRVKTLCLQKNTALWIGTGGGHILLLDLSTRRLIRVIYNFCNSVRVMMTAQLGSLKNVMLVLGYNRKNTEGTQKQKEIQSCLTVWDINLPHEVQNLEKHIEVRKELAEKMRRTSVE

Structure (SMILES) | remaining binding at 0.01 µM | remaining binding at 0.05 µM
COc1cc(C(=O)N2[C@@H]3CC[C@H]2COC3)ccc1Nc1ncc(Cl)c(-c2cnn(C(C)C)c2)n1 [Compound 95, ((1R,5S)-3-oxa-8-azabicyclo[3.2.1]octan-8-yl)(4-((5-chloro-4-(1-isopropyl-1H-pyrazol-4-yl)pyrimidin-2-yl)amino)-3-methoxyphenyl)methanone] | ≥ 50% | < 30%
COc1cc(C(=O)NC2CCN(C)CC2)ccc1Nc1ncc(Cl)c(-c2cnn(C(C)(C)C)c2)n1 [Compound 96, 4-((4-(1-(tert-butyl)-1H-pyrazol-4-yl)-5-chloropyrimidin-2-yl)amino)-3-methoxy-N -(1-methylpiperidin-4-yl)benzamide] | ≥ 50% | < 30%
COc1cc(C(=O)N2CC3CN(C)CC3C2)ccc1Nc1ncc(Cl)c(-c2cnn(C(C)C)c2)n1 (stereo not shown) [Compound 98, (4-((5-chloro-4-(1-isopropyl-1H-pyrazol-4-yl)pyrimidin-2-yl)amino)-3-methoxyphenyl)(5-methylhexahydropyrrolo[3,4-c]pyrrol-2(1H)-yl)methanone] | < 30% | < 10%
COc1cc(C(=O)NC2CCN(C(C)C)CC2)ccc1Nc1ncc(Cl)c(-c2cnn(C(C)C)c2)n1 [Compound 99, 4-((5-chloro-4-(1-isopropyl-1H-pyrazol-4-yl)pyrimidin-2-yl)amino)-N-(1-isopropylpiperidin-4-yl)-3-methoxybenzamide] | < 50% | < 30%
COc1cc(C(=O)N(C)C)ccc1Nc1ncc(Cl)c(-c2cnn(C(C)C)c2)n1 [Compound 101, 4-((5-chloro-4-(1-isopropyl-1H-pyrazol-4-yl)pyrimidin-2-yl)amino)-3-methoxy-N,N-dimethylbenzamide] | ≥ 50% | < 50%

Second part, the compound after the results:

remaining binding at 0.01 µM | remaining binding at 0.05 µM | Structure (SMILES)
< 50% | < 10% | COc1cc(C(=S)N2CCN(C)CC2)c(F)cc1Nc1ncc(Cl)c(-c2cnn(C(C)C)c2)n1 [Compound 102, (4-((5-chloro-4-(1-isopropyl-1H-pyrazol-4-yl)pyrimidin-2-yl)amino)-2-fluoro-5-methoxyphenyl)(4-methylpiperazin-1-yl) methanethione]
< 30% | < 10% | COc1cc(C(=S)N2CCN(C)CC2)ccc1Nc1ncc(Cl)c(-c2cnn(C(C)C)c2)n1 [Compound 103, (4-((5-chloro-4-(1-isopropyl-1H-pyrazol-4-yl)pyrimidin-2-yl)amino)-3-methoxyphenyl)(4-methylpiperazin-1-yl) methanethione]
≥ 50% | < 30% | COc1cc(C(=O)N2CCN(C)CC2)c(F)cc1Nc1ncc(Cl)c(-c2cnn(C(C)C)c2)n1 [Compound 104, (4-((5-chloro-4-(1-isopropyl-1H-pyrazol-4-yl)pyrimidin-2-yl)amino)-2-fluoro-5-methoxyphenyl)(4-methylpiperazin-1-yl)methanone]
< 50% | < 30% | CC(C)n1cc(-c2nc(Nc3ccc(C(=O)N4CCOCC4)cc3OC(F)F)ncc2Cl)cn1 [Compound 105, (4-((5-chloro-4-(1-isopropyl-1H-pyrazol-4-yl)pyrimidin-2-yl)amino)-3-(difluoromethoxy)phenyl)(morpholino)methanone]
≥ 50% | < 30% | COc1cc(C(=S)N2CCOCC2)c(F)cc1Nc1ncc(Cl)c(-c2cnn(C(C)C)c2)n1 [Compound 106, (4-((5-chloro-4-(1-isopropyl-1H-pyrazol-4-yl)pyrimidin-2-yl)amino)-2-fluoro-5-methoxyphenyl)(morpholino) methanethione]
≥ 50% | < 30% | CC(C)n1cc(-c2nc(Nc3ccc(C(=O)N4CCN(C)CC4)cc3OC(F)F)ncc2Cl)cn1 [Compound 108, (4-((5-chloro-4-(1-isopropyl-1H-pyrazol-4-yl)pyrimidin-2-yl)amino)-3-(difluoromethoxy)phenyl)(4-methylpiperazin-1-yl)methanone]
